Each structure is given as a SMILES string.

This series is described as follows: gradient 5% acetonitrile 3 min, to 50% in 2 min, to 85% in 15 min, held 3 min, 100 µL/min. The conditions noted are these: column: Zorbax Extend-C18 2.1 x 50 mm; eluents: water / acetonitrile, 0.1% formic acid. In a few lines:
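Over 3 months, pure standards in mixtures of ~100 molecules were run by HPLC coupled to a quadrupole time-of-flight mass spectrometer in positive and negative ionization mode. The column was a Zorbax Extend-C18 (2.1 × 50 mm, 1.8 μm) at 100 μL/min, eluted with water and acetonitrile each holding 0.1% formic acid, with 40 μL dead and 900 μL dwell volumes. Retention time was determined from adduct peaks chosen by software and checked manually.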
As for `CC1=C(c2ccc(F)cc2)S(=O)(=O)N=C1N1CCCN(C(=O)c2ccccc2)CC1`, the RP-LC retention time is 802 s. Next, `Cc1cc2[nH]c(C(=O)NC(C)c3cccnc3)c(CN3CCCCC3)c2s1` (stereo not given): 587 s; `O=C(Nc1ccccc1)C1CCCN(c2nnc3ccccn23)C1` (stereo not given): 598 s; `Cc1ccc(CNC(=O)NCc2c(C)nn(-c3ccccc3)c2-n2cccc2)cc1`: 972 s. `COc1ccccc1NC(=O)Cn1nc2cc(-c3ccccc3)nc(C)n2c1=O` gave an RP-LC retention time of 944 s.

`COCC(=O)N1CCCc2ccc(NC(=O)c3cc(C)on3)cc21` displayed an RP-LC retention time of 680 s. Next, `COc1cc(OC)cc(-c2nc(C3CC(=O)N(c4ccc(F)c(Cl)c4)C3)no2)c1` (stereo not given): 1110 s. In turn, `CCOC(=O)c1nnn(-c2ccc(OCC)cc2)c1C(=O)OCC` yielded an RP-LC retention time of 1040 s. Turning to `Cc1cccc(S(=O)(=O)Nc2ccc(-c3cn4cccc(C)c4n3)cc2)c1`, the RP-LC retention time came to 659 s. In the case of `CCOC(=O)c1noc2ncnc(NCCN(CC)c3cccc(C)c3)c12`, the RP-LC retention time came out at 946 s. Turning to `CCCCNC(=O)C1CCCN(c2ccc(=O)n(-c3cccc(Cl)c3)n2)C1` (stereo not given), the RP-LC retention time was 840 s. Take `O=C(NCc1ccccc1Cl)C1CCN(S(=O)(=O)c2cc(C(=O)N3CCCC3)cs2)CC1`: the RP-LC retention time worked out at 815 s. `Cc1nn(Cc2ccc(C(=O)NC3CC3)cc2)c(C)c1S(=O)(=O)N1CCC(C)CC1`: the RP-LC retention time was 859 s. For `CCCCOc1ccc(CNC(=O)CN2CC=C(c3cnn(-c4ccc(C)c(C)c4)c3)CC2)cc1` the value was 924 s; for `O=C(NCc1ccccc1)C1CCN(S(=O)(=O)c2cc(-c3noc(C4CC4)n3)cs2)CC1`, 935 s.

In the case of `CCOc1cc(-c2ccc(F)cc2)nc2ccc(NC(=O)C3CC3)cc12`, the RP-LC retention time was 721 s. Compound `CC(NC(=O)CN1c2ccc(F)cc2-c2ccccc2S1(=O)=O)c1ccccc1` (stereo not given) had an RP-LC retention time of 937 s. `COc1ccccc1-c1nc(-c2ccccn2)no1` had an RP-LC retention time of 813 s. Next, `Cn1cc(C(=O)OCC2CCN(CCNS(C)(=O)=O)CC2)c2ccccc21`: 680 s. For the compound `COC(=O)c1cc(OCC(=O)Nc2ccc(OC)cc2)c2cc(F)ccc2n1`, the RP-LC retention time amounted to 796 s.

For `O=C(CSc1ccc(F)cc1)OCc1cc(-c2ccc3c(c2)OCO3)on1`, the RP-LC retention time is 1020 s.

Consider `COc1ccc(C(=O)NCCc2c[nH]c3ccc(Cl)cc23)cc1OC`, for which the RP-LC retention time was determined as 817 s. `CC(C)n1c(=O)oc2cc(-c3noc(-c4cc(F)cc(F)c4)n3)ccc21`: the RP-LC retention time came out at 1220 s. Consider `COc1ccccc1NC(=O)Cn1cccc(-c2nc(-c3ccc(Br)cc3)no2)c1=O`, for which the RP-LC retention time came to 1000 s. As to `CN(CC(=O)N1CCN(c2ccccc2F)CC1)S(=O)(=O)c1c[nH]c(C(=O)N2CCCC2)c1`, the RP-LC retention time came to 752 s. Next, `COc1ccc2nc(C(=O)N(C)Cc3ccccc3)cn2n1`: 790 s; `CCN1c2ccc(F)cc2C(=O)NC12CCN(C(=O)c1ccccc1OC)CC2`: 759 s. Turning to `Cc1ccc(CNC(=O)c2cn3c(n2)CCCC3)cc1`, the RP-LC retention time is 604 s. On to `CNS(=O)(=O)c1ccc(Cl)c(-c2nnc(-c3ccccc3)o2)c1`, for which the RP-LC retention time turned out to be 870 s. Next, `Cc1cccc(S(=O)(=O)N2CCCC2c2nc(-c3cccc(C(F)(F)F)c3)no2)c1` (stereo not given): 1200 s. Regarding `O=C(Cn1cc(-c2ccc(F)cc2)oc1=O)NC1CCN(Cc2ccccc2)CC1`, the RP-LC retention time stood at 632 s.

The compound `CCOCCn1c(=O)c2c(nc3n2CCN3c2cc(Cl)ccc2OC)n(C)c1=O` showed an RP-LC retention time of 774 s. As for `Cc1sc(-c2noc(C(C)C)n2)cc1S(=O)(=O)N1CCC(C(=O)NCc2ccco2)CC1`, the RP-LC retention time amounted to 992 s.

Compound `COc1ccc(-c2noc(Cc3nc(-c4ccc(C)c(C)c4)cs3)n2)cc1` returned an RP-LC retention time of 1310 s. `CN1CCCC1c1nc(C2CN(C(=O)c3ccsc3)C2)no1` (stereo not given) showed an RP-LC retention time of 567 s. For `Cc1ccccc1-c1noc(-c2cccn(CC(=O)NC3CCCC3)c2=O)n1` the value was 832 s. The compound `CCc1ccc(-c2noc(CN3C(=O)COc4ccccc43)n2)cc1` had an RP-LC retention time of 1120 s. Consider `CCOC(=O)c1cc(C2CC2)nc2c1c(=O)n(Cc1cccc(F)c1)c(=O)n2C`, for which the RP-LC retention time stood at 1160 s. For `COc1ccc(N2CCN(c3cc(C(=O)O)c4cc(NS(C)(=O)=O)ccc4n3)CC2)cc1` the value was 609 s; for `O=C(NCCN1CCOCC1)c1nc(-c2ccnc(N3CCCCCC3)c2)no1`, 564 s.

For the compound `Cn1c(=O)c(C(=O)NC2CC2)nc2ccccc21`, the RP-LC retention time came to 644 s. The compound `Cn1ncc(N2CCCC(C(=O)NC3CCCCCCC3)C2)cc1=O` (stereo not given) came in with an RP-LC retention time of 751 s. For `COCCN1C(=O)Cc2ccccc2C1C(=O)NCc1cc(F)ccc1F` (stereo not given), the RP-LC retention time was 738 s. The compound `COC[C@@H]1CN(Cc2ccc(Cl)c(F)c2)C[C@H]1c1nc(C)no1` displayed an RP-LC retention time of 645 s. For `O=C(c1nnc(-c2ccc(S(=O)(=O)N3CCCCC3)cc2)o1)N1CCC2(CC1)OCCO2` the value was 884 s; for `O=C([C@H]1C[C@@H](F)CN1S(=O)(=O)c1cccc(Cl)c1)N1CCOCC1`, 717 s; for `CC(C)(C)C(O)CCNC(=O)C(=O)Nc1cccc(N2CCCCC2=O)c1` (stereo not given), 650 s. With `Cc1cccc(CNC(=O)C2CCN(C(=O)c3ncn4c3COC(c3ccccc3)C4)CC2)c1` (stereo not given), the RP-LC retention time came out at 879 s. In turn, `Nc1cc(C2CCN(C(=O)c3ccc(Br)cc3)CC2)no1` had an RP-LC retention time of 716 s. For `Cc1ccc(CNC(=O)CCc2conc2-c2ccccc2)cc1`, the RP-LC retention time was determined as 896 s. For `CCCN1C(=O)c2cc(S(=O)(=O)Nc3ccccc3C)ccc2Oc2cccnc21` the value was 1080 s; for `Cc1ccc(C)c(NC(=O)N2CC(c3nc(C)no3)C3(CCOCC3)C2)c1` (stereo not given), 693 s. For `CN(C)CCC[C@@]1(c2ccc(F)cc2)OCc2cc(C#N)ccc21` the value was 724 s; for `Cc1ccc2c(c1)OCC(=O)N2Cc1nc(-c2ccc(Br)cc2)no1`, 1180 s. For `Nc1ncnc2c1nc(Cl)n2C1OC2COP(=O)(O)OC2C1O` (stereo not given) the value was 523 s; for `Cc1ccc(Cl)cc1-n1ccnc(NC(=O)Nc2ccccc2)c1=O`, 1020 s. `Cc1nc(N2CCN(CCO)CC2)nc2c1C(=O)CC(C)(C)C2` displayed an RP-LC retention time of 604 s. In turn, `COc1cccc(-c2cc(CNC(=O)c3sc(-n4cccc4)nc3C)no2)c1` showed an RP-LC retention time of 934 s. For the compound `Cc1sc(NC(=O)CC(C)C)nc1-c1ccc2c(c1)NC(=O)CO2`, the RP-LC retention time was 822 s.

`COCc1nc(CCNS(=O)(=O)c2ccc(OC)cc2)no1`: the RP-LC retention time is 731 s. As for `COc1ccccc1CNC(=O)c1nnc(-c2ccc(S(=O)(=O)N3CCCC3)cc2)o1`, the RP-LC retention time is 906 s.

Regarding `COc1ccccc1OCC1c2ccsc2CCN1C(=O)CN(C(C)=O)C(C)C` (stereo not given), the RP-LC retention time was determined as 773 s. On to `CN(C)C(=O)Cn1c(=O)c2cccn2c2ccccc21`, for which the RP-LC retention time is 666 s.

Consider `Cn1nc(-c2nnc(-c3ccc(F)cc3)o2)c2c1CCN(S(=O)(=O)Cc1ccccc1Cl)C2`, for which the RP-LC retention time is 970 s.

For `COc1ccc(C2(C(=O)N3CCC(OCCOc4ccc(F)cc4)CC3)CC2)cc1`, the RP-LC retention time came out at 997 s. With `CC(=O)c1ccc(NC(=O)N(C)C)cc1`, the RP-LC retention time amounted to 588 s. `CCOc1ccc2nc(N3CCCC(C(=O)NCCCN4CCOCC4)C3)sc2c1` (stereo not given): the RP-LC retention time was 632 s. The compound `O=C(CN1C(=O)CCc2cc(Br)ccc21)Nc1ccc2c(c1)OCO2` displayed an RP-LC retention time of 792 s.

The compound `C=CC(=O)Nc1cc2c(Nc3ccc(F)c(Cl)c3)ncnc2cc1OCCCN1CCOCC1` returned an RP-LC retention time of 630 s. The compound `O=C(CSc1nnc(-c2cccnc2)o1)Nc1c(Cl)cccc1Cl` returned an RP-LC retention time of 654 s. Next, `CCOCC1CCC2(CCN(C(=O)Cn3c(=O)oc4cc(Cl)ccc43)CC2)O1` (stereo not given): 900 s.

Compound `O=C1OC2CC1N(C(=O)C1CC=CCC1)C2` (stereo not given) yielded an RP-LC retention time of 622 s. Take `COc1ccc(C2Cn3cnc(C(=O)N4CCC(C(=O)Nc5cc(C)cc(C)c5)CC4)c3CO2)cc1` (stereo not given): the RP-LC retention time was found to be 751 s.

In turn, `CCOC(=O)c1c(C)oc2nc(C)nc(Nc3ccc4c(c3)OCCO4)c12` had an RP-LC retention time of 1200 s. For the compound `O=C(NCc1ccccc1)c1cn(Cc2ccc(NC(=O)C3CCCCC3)cc2)cn1`, the RP-LC retention time amounted to 749 s.

Compound `Cc1cc(=O)n(CC(=O)Nc2ccc3c(c2)OCO3)c(-c2ccccc2)n1` returned an RP-LC retention time of 941 s.

`Cc1ccc(CNC(=O)C2CCCN(c3ncnc4c3nc3n4CCCCC3)C2)cc1` (stereo not given) returned an RP-LC retention time of 793 s. Regarding `CCc1ccc(-n2ncc3c(=O)n(Cc4nc(-c5ccc(OC)c(OC)c5)no4)cnc32)cc1`, the RP-LC retention time came out at 1060 s. Next, `CCn1c(CCNC(=O)c2ccc(C)s2)nc2cccnc21`: 634 s; `O=C(Nc1nc(-c2cc([N+](=O)[O-])cs2)cs1)c1coc2ccccc2c1=O`: 1110 s.
